The text below walks through data of ChEMBL document CHEMBL1201862, “PubChem BioAssay data set” (2004).

Among the test systems are K562; 786-0; CCRF-CEM; HCT-15; HT-29; IGROV-1; HCT-116; SK-MEL-28; SF-539; NCI-H23; ACHN; LOX IMVI; M14; HOP-62; U-251; SNB-19.
Common to all, as to experiment: NCI anticancer screen, dose series, 48 h

The structures appear in SMILES notation.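 Compound exposure: 48 hours, 5 concentrations, 96-well plates. GI50: concentration for 50% inhibition of growth.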 The source made the active and inactive calls. Cut-off read from the data, not from the text of the source: active = GI50 up to about 1.1 µM and inactive = higher.

Take `COc1ccc2c(c1OC)C1=C(C2=O)c2cc3c(cc2CCN1)OCO3`: the GI50 in the assay on K562 was 25.1 µM (inactive); in the assay on 786-0, 31.9 µM (inactive); with CCRF-CEM it was 26.1 µM (inactive); in the assay on HCT-15 it was 29.4 µM; in the assay on HT-29, 18.9 µM (inactive); in the assay with IGROV-1 it was 68.1 µM (inactive). The GI50 with HCT-116 was 32.8 µM (inactive); in the assay on SK-MEL-28, 42.7 µM (inactive); in the assay on SF-539 it was 28.2 µM (inactive); in the assay on NCI-H23, 46.5 µM (inactive); in the assay with ACHN, 3.42 µM (inactive); in the assay on LOX IMVI it was 24.8 µM (inactive). Moreover, the GI50 was 37.3 µM (inactive) in the assay with M14 and 48.6 µM (inactive) in the assay on HOP-62.

Consider `Cc1cccc2c1NC(c1c(C)[nH]c3ccccc13)C2` (stereo not given), for which the GI50 in the assay on K562 is > 100 µM (inactive); in the assay on 786-0 it was > 100 µM (inactive); in the assay on CCRF-CEM it was 57.7 µM (inactive); with HCT-15, greater than 100 µM; with HT-29 it was > 100 µM (inactive); in the assay with IGROV-1 it was 33.4 µM (inactive). The GI50 in the assay on HCT-116 is > 100 µM (inactive); in the assay on SK-MEL-28, > 100 µM (inactive); with SF-539, > 100 µM (inactive); in the assay on NCI-H23 it was > 100 µM (inactive); in the assay on ACHN, 94 µM (inactive); in the assay with U-251 it was > 100 µM (inactive). Moreover, the GI50 with LOX IMVI is 80 µM (inactive); in the assay on M14 it was 78.7 µM (inactive); with HOP-62, > 100 µM (inactive); in the assay on SNB-19, > 100 µM (inactive).

For the compound `COC1C=CC23c4cc5c(cc4C(O)OC2CN(C)C3C1)OCO5` (stereo not given), the GI50 with K562 is 1.77 µM (inactive); in the assay with 786-0, 1.64 µM (inactive); with CCRF-CEM, 1.84 µM (inactive); with IGROV-1, 4.72 µM (inactive); in the assay with HCT-116, 1.07 µM (active); in the assay with SF-539, 1.08 µM (active). Further, the GI50 with NCI-H23 was 2.94 µM (inactive); in the assay on ACHN, 1.32 µM (inactive); with LOX IMVI it was 1.29 µM (inactive); in the assay with M14, 0.746 µM (active); in the assay with HOP-62, 2.54 µM (inactive); in the assay on SNB-19, 1.65 µM (inactive).

Take `COc1ccc(/C=N/Nc2nc(-c3cc4oc(=O)n(C)c4cc3Cl)cs2)cc1OC`: the GI50 with K562 is 4.89 µM (inactive); in the assay with 786-0 it was 33.4 µM (inactive); with CCRF-CEM, 91 µM (inactive); in the assay with HCT-15, 6.65 µM; in the assay with HT-29 it was 9.33 µM (inactive); in the assay on IGROV-1 it was 14 µM (inactive). Besides, the GI50 in the assay with HCT-116 is 9.04 µM (inactive); with SK-MEL-28 it was > 100 µM (inactive); with SF-539, 48.3 µM (inactive); in the assay on NCI-H23, 6.15 µM (inactive); in the assay on ACHN, 7.66 µM (inactive); in the assay on U-251, 15.7 µM (inactive). The GI50 in the assay on LOX IMVI is 28.6 µM (inactive); with M14 it was 78.5 µM (inactive); with HOP-62, 36.2 µM (inactive); with SNB-19, 49.2 µM (inactive).

With `O=C1Cc2c([nH]c3ccccc23)-c2ccccc2N1` [PAULLONE], the GI50 in the assay on K562 was 19.5 µM (inactive); in the assay with 786-0 it was 75.3 µM (inactive); in the assay with CCRF-CEM it was 22.2 µM (inactive); in the assay with HCT-15, 30.9 µM; in the assay with HT-29 it was 26 µM (inactive); in the assay on IGROV-1, 27.2 µM (inactive). Also, the GI50 was 16.7 µM (inactive) with HCT-116; 48.8 µM (inactive) in the assay on SK-MEL-28; 18.3 µM (inactive) in the assay with SF-539; 16 µM (inactive) in the assay with NCI-H23; 36.6 µM (inactive) in the assay on ACHN; 39.6 µM (inactive) in the assay on U-251. Further, the GI50 is 16.5 µM (inactive) with LOX IMVI, 42.5 µM (inactive) in the assay on M14, 33.7 µM (inactive) with HOP-62 and 61.4 µM (inactive) with SNB-19.

Turning to `Cc1ccc(N(C(=O)CC(=O)N2N=C(c3ccccc3)C(/N=N/c3ccc([N+](=O)[O-])cc3)C2=O)C(=O)c2ccc(Cl)cc2)cc1` (stereo not given), the GI50 in the assay on K562 is 24.7 µM (inactive); in the assay on 786-0, 14.4 µM (inactive); in the assay with CCRF-CEM, 5.27 µM (inactive); with HCT-15 it was 13.2 µM; in the assay on HT-29, 31 µM (inactive); with IGROV-1, 16.8 µM (inactive). The GI50 was 8.59 µM (inactive) with HCT-116; 48.5 µM (inactive) in the assay on SK-MEL-28; 19.8 µM (inactive) in the assay with SF-539; 5.98 µM (inactive) with NCI-H23; 28.4 µM (inactive) in the assay with ACHN; 6.27 µM (inactive) in the assay on U-251. The GI50 is 3.7 µM (inactive) in the assay on LOX IMVI, 5.69 µM (inactive) in the assay with M14, 10.3 µM (inactive) with HOP-62 and 17.3 µM (inactive) in the assay on SNB-19.

For the compound `CCOc1cc[n+]([C-](C#N)C#N)cc1`, the GI50 was > 100 µM (inactive) in the assay on K562; > 100 µM (inactive) in the assay with 786-0; > 100 µM (inactive) in the assay on CCRF-CEM; greater than 100 µM with HCT-15; > 100 µM (inactive) in the assay with HT-29; > 100 µM (inactive) in the assay on IGROV-1. The GI50 in the assay on HCT-116, in the assay with SF-539, with NCI-H23, in the assay with U-251, in the assay with LOX IMVI and in the assay with M14 was > 100 µM (inactive) each time. For the same compound, the GI50 in the assay with HOP-62 and in the assay on SNB-19 was > 100 µM (inactive) in each case.

As for `COC12OCCN(C)C1=CC(=O)C1(C)N=NCC12` (stereo not given), the GI50 in the assay with K562 was > 100 µM (inactive); with 786-0, > 100 µM (inactive); in the assay on CCRF-CEM, > 100 µM (inactive); with HCT-15 it was greater than 100 µM; in the assay on HT-29 it was > 100 µM (inactive); with IGROV-1 it was > 100 µM (inactive). Besides, the GI50 with HCT-116, with SK-MEL-28, with SF-539, in the assay on NCI-H23, in the assay on ACHN and with U-251 was > 100 µM (inactive) in each case. The GI50 in the assay on LOX IMVI and with M14 was > 100 µM (inactive) throughout.

As for `CC(C)CC(=O)NS(=O)(=O)c1ccccc1`, the GI50 is > 100 µM (inactive) in the assay with K562; > 100 µM (inactive) in the assay on 786-0; > 100 µM (inactive) in the assay with CCRF-CEM; greater than 100 µM with HCT-15; > 100 µM (inactive) with HT-29; > 100 µM (inactive) in the assay with IGROV-1. Besides, the GI50 in the assay with HCT-116, in the assay with SK-MEL-28, in the assay with SF-539, in the assay on NCI-H23, in the assay with ACHN and in the assay with U-251 was > 100 µM (inactive) each time. Besides, the GI50 in the assay on LOX IMVI, with M14, in the assay with HOP-62 and in the assay with SNB-19 was > 100 µM (inactive) throughout.

`CCCCc1c2c(nc3c1CCc1cc4cc5c(nc4nc1-3)-c1nc3c(c(CCCC)c1CC5)CCCC3)CCCC2`: the GI50 in the assay on K562 was 39.4 µM (inactive); in the assay with 786-0 it was 23.6 µM (inactive); with CCRF-CEM, 31.7 µM (inactive); in the assay on HCT-15, 33.2 µM; with HT-29, 7.28 µM (inactive); with IGROV-1, 38.5 µM (inactive). For the same compound, the GI50 in the assay on HCT-116 is 34.5 µM (inactive); with SK-MEL-28 it was 69.5 µM (inactive); in the assay on SF-539, 16.4 µM (inactive); in the assay on NCI-H23 it was 49.5 µM (inactive); in the assay on ACHN it was 23.8 µM (inactive); in the assay on U-251, 31.8 µM (inactive). In addition, the GI50 in the assay on LOX IMVI was 41.9 µM (inactive); in the assay with M14, 53.1 µM (inactive); in the assay with HOP-62, 37.9 µM (inactive); in the assay with SNB-19, 34.4 µM (inactive).
